Experimental data: US10925960B2, “Antigen delivery system” (SRI INTERNATIONAL, priority 2014, dated 2021)

System: LLC1 cells
Test: Coculture of liposome-treated LLC1 cells with lymphocytes from H250-vaccinated C57BL/6 mice, IFNγ secretion
Assay type: cell-based, mouse
Details: LLC1 cells treated with H1299.3-targeted liposomes containing H250 in presence of inhibitor, fixed, cocultured with lymphocytes
Protocol: We then generated murine CD8+ cells with TCR that recognizes MHC class I loaded H250 (1) by vaccinating C57BL/6 mice with an extended version of H250 and subsequently harvesting lymphocytes as a source of CD8+ T cells. LLC1 cells were treated with control or H1299.3-targeted liposomes containing H250, washed, and then incubated.
After allowing trafficking of the peptides to occur, the LLC1 cells were fixed and cocultured with lymphocytes as previously described.

SMILES	Effect of inhibitor on IFNγ secretion / H250 presentation
CCN(CC)CCCC(C)Nc1ccnc2cc(Cl)ccc12 (stereo not drawn) [chloroquine]	significant reduction in IFNγ secretion
CN(C)CCCN1c2ccccc2Sc2ccc(Cl)cc21 [Chlorpromazine]	reduced presentation
C[C@@H]1[C@H](O)[C@@H](C)/C=C/C=C/CC/C=C/C=C/C=C/C=C/C(O[C@H]2O[C@H](C)[C@@H](O)[C@H](N)[C@@H]2O)CC2O[C@](O)(CC(O)C(O)CCC(O)CC(O)CC(O)CC(=O)O[C@H]1C)CC(O)C2C(=O)O (stereo partly drawn) [Nystatin]	no effect
